Source: US9452986B2, “6-heteroaryloxy- or 6-aryloxy-quinoline-2-carboxamides and method of use” (AbbVie Inc., priority 2014, dated 2016)
Read-outs that look alike come from different tables or passages of the source.

Target: recombinant human Nav1.7 (Homo sapiens (Human), UniProt Q15858)
Assay: FRET-based membrane potential assay, recombinant human sodium channel Nav1.7
Assay type: cell-based
Procedure: FRET-Based Membrane Potential Assays.
Recombinant, Human Sodium Channel, Nav1.7.
On the day of the assay, medium was removed by aspiration, and cells were washed with assay buffer [HBSS (Invitrogen, Carlsbad, Calif.) containing 20 mM HEPES (Invitrogen, Carlsbad, Calif.)]. […] Cells were incubated for 40 minutes at room temperature in the dark. […] The cells were incubated for 90 minutes at room temperature in the dark. Fluorescence readings were made using a FLIPR®^TETRA (Molecular Devices, Sunnyvale Calif.) equipped with voltage-sensor probe optics. At the start of each experiment the optimal (EC80) concentration of depolarizing agent (veratridine) was determined by testing a dilution curve of assay buffer containing veratridine (Sigma-Aldrich, St. Louis, Mo.) and 1 mg/mL scorpion venom (SVqq, from Leiurus quinquestriatus; Sigma-Aldrich, St. Louis, Mo.). […] Test compounds in the daughter plate were diluted to (˜3×) solutions in assay buffer immediately before assaying. Using the FLIPR®^TETRA, 20 μL of the (3×) compound solutions were first added to the cells, then 20 μL of depolarizing solution (3×EC80 veratridine+SVqq) were added 3 minutes later to activate the channel. […] IC50 values were calculated from curve fits of the ratio data using a four-parameter logistic Hill equation (Accelrys Assay Explorer 3.3 Client, Accelrys, San Diego, Calif.) with percent inhibition plotted against compound concentration.

[1] = HEK293 cells stably expressing recombinant human Nav1.7, veratridine + scorpion venom depolarization, read-out: FRET-Membrane Potential Nav1.7 IC50
[2] = read-out: FRET-Membrane Potential Nav1.7 IC50

recombinant human Nav1.7, sequence (Q15858 whole entry): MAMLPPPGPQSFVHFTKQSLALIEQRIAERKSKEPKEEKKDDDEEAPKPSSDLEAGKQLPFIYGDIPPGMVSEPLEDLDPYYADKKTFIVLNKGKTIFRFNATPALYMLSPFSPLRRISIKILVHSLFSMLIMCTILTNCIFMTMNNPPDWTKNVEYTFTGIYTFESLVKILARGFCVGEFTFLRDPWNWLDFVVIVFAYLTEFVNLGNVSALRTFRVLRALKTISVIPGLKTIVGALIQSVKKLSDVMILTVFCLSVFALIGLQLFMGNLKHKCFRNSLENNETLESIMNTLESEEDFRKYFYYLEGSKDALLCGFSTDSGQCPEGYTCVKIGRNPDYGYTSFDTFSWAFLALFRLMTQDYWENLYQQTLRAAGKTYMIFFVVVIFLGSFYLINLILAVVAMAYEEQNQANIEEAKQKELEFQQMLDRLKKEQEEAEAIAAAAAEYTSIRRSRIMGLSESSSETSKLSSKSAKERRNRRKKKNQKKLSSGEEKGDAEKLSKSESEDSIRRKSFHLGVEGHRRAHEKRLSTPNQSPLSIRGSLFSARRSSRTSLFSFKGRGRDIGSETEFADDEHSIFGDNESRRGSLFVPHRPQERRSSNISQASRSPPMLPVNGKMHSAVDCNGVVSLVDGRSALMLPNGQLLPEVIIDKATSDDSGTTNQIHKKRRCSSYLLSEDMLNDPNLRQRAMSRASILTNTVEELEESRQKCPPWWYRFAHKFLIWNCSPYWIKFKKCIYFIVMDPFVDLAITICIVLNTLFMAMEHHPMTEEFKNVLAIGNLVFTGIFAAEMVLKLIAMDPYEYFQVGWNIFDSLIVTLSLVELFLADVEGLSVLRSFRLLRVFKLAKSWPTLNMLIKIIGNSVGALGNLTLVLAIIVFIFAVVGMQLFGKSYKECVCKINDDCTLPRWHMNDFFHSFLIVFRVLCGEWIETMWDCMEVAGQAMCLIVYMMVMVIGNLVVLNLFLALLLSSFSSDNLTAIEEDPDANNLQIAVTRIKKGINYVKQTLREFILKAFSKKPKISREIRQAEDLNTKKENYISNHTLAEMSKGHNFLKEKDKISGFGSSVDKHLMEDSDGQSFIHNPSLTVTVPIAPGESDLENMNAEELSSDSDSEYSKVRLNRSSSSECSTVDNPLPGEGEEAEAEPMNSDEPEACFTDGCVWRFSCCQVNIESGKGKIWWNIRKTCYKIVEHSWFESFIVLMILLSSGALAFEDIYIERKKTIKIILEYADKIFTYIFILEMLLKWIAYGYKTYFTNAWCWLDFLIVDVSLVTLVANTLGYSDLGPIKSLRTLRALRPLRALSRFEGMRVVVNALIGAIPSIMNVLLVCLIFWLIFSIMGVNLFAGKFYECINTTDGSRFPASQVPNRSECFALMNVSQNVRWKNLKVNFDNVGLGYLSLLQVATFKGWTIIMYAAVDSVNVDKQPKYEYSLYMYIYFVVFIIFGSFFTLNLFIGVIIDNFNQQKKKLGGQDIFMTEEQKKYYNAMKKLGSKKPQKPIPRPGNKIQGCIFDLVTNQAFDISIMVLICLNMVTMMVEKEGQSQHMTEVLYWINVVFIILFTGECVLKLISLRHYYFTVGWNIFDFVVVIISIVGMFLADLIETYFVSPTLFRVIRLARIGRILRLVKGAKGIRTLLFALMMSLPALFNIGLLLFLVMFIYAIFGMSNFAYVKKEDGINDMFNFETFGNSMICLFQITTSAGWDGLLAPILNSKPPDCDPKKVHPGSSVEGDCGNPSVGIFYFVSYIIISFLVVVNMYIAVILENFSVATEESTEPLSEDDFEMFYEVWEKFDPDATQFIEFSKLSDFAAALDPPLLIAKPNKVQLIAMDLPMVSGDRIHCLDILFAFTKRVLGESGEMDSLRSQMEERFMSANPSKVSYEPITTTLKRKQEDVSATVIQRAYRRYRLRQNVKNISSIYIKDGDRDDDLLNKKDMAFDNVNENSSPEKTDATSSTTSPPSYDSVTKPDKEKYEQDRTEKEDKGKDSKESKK

Row | Compound | IC50 [1] [µM] | other results
1 | O=C(c1ccc2cc(Oc3ccc(C(F)(F)F)cn3)ccc2n1)N1C[C@H](CO)C[C@H](CO)C1 [Example 307, [cis-3,5-bis(hydroxymethyl)piperidin-1-yl](6-{[5-(trifluoromethyl)pyridin-2-yl]oxy}quinolin-2-yl)methanone] | 14.6 | –
2 | CS(=O)(=O)C1CN(C(=O)c2ccc3cc(Oc4ccc(C(F)F)cn4)ccc3n2)C1 [Example 479, (6-{[5-(difluoromethyl)pyridin-2-yl]oxy}quinolin-2-yl)[3-(methylsulfonyl)azetidin-1-yl]methanone] | 3.19 | –
3 | O=C(c1ccc2cc(Oc3ccc(C(F)(F)F)cn3)ccc2n1)N1CC[C@@H](F)[C@H](O)C1 (relative stereo) [Example 196, [trans-4-fluoro-3-hydroxypiperidin-1-yl](6-{[5-(trifluoromethyl)pyridin-2-yl]oxy}quinolin-2-yl)methanone] | 4.93 | –
4 | N#Cc1ccc(Oc2ccc3nc(C(=O)NCc4ccco4)ccc3c2)cc1 [Example 94, 6-(4-cyanophenoxy)-N-(2-furylmethyl)quinoline-2-carboxamide] | 5.25 | –
5 | Cc1ccnc(Oc2ccc3nc(C(=O)NC4CCS(=O)(=O)C4)ccc3c2)n1 (stereo not drawn) [Example 163, N-(1,1-dioxidotetrahydrothiophen-3-yl)-6-[(4-methylpyrimidin-2-yl)oxy]quinoline-2-carboxamide] | > 20 | –
6 | CC(C)S(=O)(=O)N1CCN(C(=O)c2ccc3cc(Oc4ccc(C(F)(F)F)cn4)ccc3n2)CC1 [Example 177, [4-(isopropylsulfonyl)piperazin-1-yl](6-{[5-(trifluoromethyl)pyridin-2-yl]oxy}quinolin-2-yl)methanone] | 2.68 | –
7 | O=C1CN(C(=O)c2ccc3cc(Oc4ccc(C(F)(F)F)cn4)ccc3n2)C1 [Example 370, 1-[(6-{[5-(trifluoromethyl)pyridin-2-yl]oxy}quinolin-2-yl)carbonyl]azetidin-3-one] | – | IC50 [2]: 3.39 µM
8 | O=C(c1ccc2cc(Oc3ccc(C(F)(F)F)cn3)ccc2n1)N1CCN2C(=O)OCC2C1 (stereo not drawn) [Example 329, 7-[(6-{[5-(trifluoromethyl)pyridin-2-yl]oxy}quinolin-2-yl)carbonyl]hexahydro[1,3]oxazolo[3,4-a]pyrazin-3-one] | 9.28 | –
9 | O=C1CCC(NC(=O)c2ccc3cc(Oc4ccc(C(F)(F)F)cn4)ccc3n2)CN1 (stereo not drawn) [Example 416, N-(6-oxopiperidin-3-yl)-6-{[5-(trifluoromethyl)pyridin-2-yl]oxy}quinoline-2-carboxamide] | 0.7 | –
10 | O=C(NCC(=O)N1CCC1)c1ccc2cc(Oc3ccc(C(F)(F)F)cn3)ccc2n1 [Example 571, N-[2-(azetidin-1-yl)-2-oxoethyl]-6-{[5-(trifluoromethyl)pyridin-2-yl]oxy}quinoline-2-carboxamide] | – | IC50 [2]: 0.448 µM
11 | CO[C@@H]1CN(C(=O)c2ccc3cc(Oc4ccc(C(F)(F)F)cn4)ccc3n2)C[C@H]1O (relative stereo) [Example 305, [trans-3-hydroxy-4-methoxypyrrolidin-1-yl](6-{[5-(trifluoromethyl)pyridin-2-yl]oxy}quinolin-2-yl)methanone] | 13.6 | –
12 | O=C(c1ccc2cc(Oc3ccc(C(F)(F)F)cn3)ccc2n1)N1CCC(CO)CC1 [Example 265, [4-(hydroxymethyl)piperidin-1-yl](6-{[5-(trifluoromethyl)pyridin-2-yl]oxy}quinolin-2-yl)methanone] | 3.45 | –
13 | O=C(c1ccc2cc(Oc3ccc(C(F)(F)F)cn3)ccc2n1)N1CCC2(CC(O)C2)C1 (stereo not drawn) [Example 345, (2-hydroxy-6-azaspiro[3.4]oct-6-yl)(6-{[5-(trifluoromethyl)pyridin-2-yl]oxy}quinolin-2-yl)methanone] | 9.15 | –
14 | O=C1NCCN(C(=O)c2ccc3cc(Oc4ccc(C(F)(F)F)cn4)ccc3n2)C1c1ccccc1 (stereo not drawn) [Example 208, 3-phenyl-4-[(6-{[5-(trifluoromethyl)pyridin-2-yl]oxy}quinolin-2-yl)carbonyl]piperazin-2-one] | – | IC50 [2]: 3.05 µM
15 | Cc1ccccc1NC(=O)CCNC(=O)c1ccc2cc(Oc3ccc(C(F)(F)F)cn3)ccc2n1 [Example 500, N-{3-[(2-methylphenyl)amino]-3-oxopropyl}-6-{[5-(trifluoromethyl)pyridin-2-yl]oxy}quinoline-2-carboxamide] | 0.293 | –
16 | O=C(c1ccc2cc(Oc3ccc(C(F)(F)F)cn3)ccc2n1)N1CCN[C@H](CO)C1 [Example 276, [(3S)-3-(hydroxymethyl)piperazin-1-yl](6-{[5-(trifluoromethyl)pyridin-2-yl]oxy}quinolin-2-yl)methanone] | – | IC50 (FRET-Membrane Potential Nav1.7 IC50): 3.1 µM
17 | O=C1CN(C(=O)c2ccc3cc(Oc4ccc(C(F)(F)F)cn4)ccc3n2)CCN1 [Example 172, 4-[(6-{[5-(trifluoromethyl)pyridin-2-yl]oxy}quinolin-2-yl)carbonyl]piperazin-2-one] | 10.5 | –
18 | O=C(c1ccc2cc(Oc3ccc(C(F)(F)F)cn3)ccc2n1)N1CCC(F)(COc2ccncc2)C1 (stereo not drawn) [Example 489, {3-fluoro-3-[(pyridin-4-yloxy)methyl]pyrrolidin-1-yl}(6-{[5-(trifluoromethyl)pyridin-2-yl]oxy}quinolin-2-yl)methanone] | 1.1 | –
19 | O=C(NC1CCSCC1)c1ccc2cc(Oc3ccc(C(F)(F)F)cn3)ccc2n1 [Example 400, N-(tetrahydro-2H-thiopyran-4-yl)-6-{[5-(trifluoromethyl)pyridin-2-yl]oxy}quinoline-2-carboxamide] | 1.22 | –
20 | COCCN(C)C(=O)c1ccc2cc(Oc3ccc(C(F)(F)F)cn3)ccc2n1 [Example 392, N-(2-methoxyethyl)-N-methyl-6-{[5-(trifluoromethyl)pyridin-2-yl]oxy}quinoline-2-carboxamide] | – | IC50 [2]: 7.96 µM
21 | CC(C)(O)c1ccc(Oc2ccc3nc(C(=O)N4CCNCC4)ccc3c2)cc1 [Example 209, {6-[4-(2-hydroxypropan-2-yl)phenoxy]quinolin-2-yl}(piperazin-1-yl)methanone] | 8.86 | –
22 | CCN(CC)C(=O)CCNC(=O)c1ccc2cc(Oc3ccc(C(F)F)cn3)ccc2n1 [Example 467, N-[3-(diethylamino)-3-oxopropyl]-6-{[5-(difluoromethyl)pyridin-2-yl]oxy}quinoline-2-carboxamide] | 0.521 | –
23 | O=C(c1ccc2cc(Oc3ccc(C(F)(F)F)cn3)ccc2n1)N1CCS(=O)(=O)CC1 [Example 227, (1,1-dioxidothiomorpholin-4-yl)(6-{[5-(trifluoromethyl)pyridin-2-yl]oxy}quinolin-2-yl)methanone] | 2.94 | –
24 | O=C(NC1CCC(F)(F)C1)c1ccc2cc(Oc3ccc(C(F)F)cn3)ccc2n1 (stereo not drawn) [Example 486, N-(3,3-difluorocyclopentyl)-6-{[5-(difluoromethyl)pyridin-2-yl]oxy}quinoline-2-carboxamide] | – | IC50 [2]: 2.54 µM
25 | O=C(c1ccc2cc(Oc3ccc(C(F)(F)F)cn3)ccc2n1)N1CCCCC1 [Example 297, piperidin-1-yl(6-{[5-(trifluoromethyl)pyridin-2-yl]oxy}quinolin-2-yl)methanone] | 7.99 | –
26 | O=C(c1ccc2cc(Oc3ccc(C(F)(F)F)cn3)ccc2n1)N1CCN(C(=O)N2CCOCC2)CC1 [Example 299, morpholin-4-yl{4-[(6-{[5-(trifluoromethyl)pyridin-2-yl]oxy}quinolin-2-yl)carbonyl]piperazin-1-yl}methanone] | > 20 | –
27 | CC1(O)CC(NC(=O)c2ccc3cc(Oc4ccc(C(F)(F)F)cn4)ccc3n2)C1 (stereo not drawn) [Example 426, N-(3-hydroxy-3-methylcyclobutyl)-6-{[5-(trifluoromethyl)pyridin-2-yl]oxy}quinoline-2-carboxamide] | 0.972 | –
